The text below walks through data of ChEMBL document CHEMBL3351350, “Inhibition of C-terminal truncated PPM1D enhances the effect of doxorubicin on cell viability in human colorectal carcinoma cell line” (2014).

Activity calls are given as the source filed them. No cut-off for these calls is given here.

Assay [1] relates to HCT-116. The assay is described as follows: Cytotoxicity against human HCT116 cells assessed as inhibition of cell viability after 48 hrs by MTS assay. In kind it is functional, cell-based. For orientation: Tetrazolium assays rely on reduction of a dye to a coloured formazan, in cell work by metabolically active cells.
In assay [2] the test system is A549. The assay is described as follows: Cytotoxicity against human A549 cells assessed as inhibition of cell viability after 48 hrs by MTS assay. It counts as functional, cell-based.
Assay [3] is described as follows: Cytotoxicity against human HCT116 cells assessed as cell viability at 2 uM after 48 hrs by MTS assay. In kind it is functional. Particulars: HCT-116, 48 h, read-out: Activity.
Assay [4] relates to A549. The assay is described as follows: Cytotoxicity against human A549 cells assessed as cell viability at 2 uM after 48 hrs by MTS assay. It counts as functional. Particulars: A549, 48 h, read-out: Activity.
The target in assay [5] is T1, Protein phosphatase 1D (Homo sapiens) (UniProt O15297).
T1 sequence (whole entry): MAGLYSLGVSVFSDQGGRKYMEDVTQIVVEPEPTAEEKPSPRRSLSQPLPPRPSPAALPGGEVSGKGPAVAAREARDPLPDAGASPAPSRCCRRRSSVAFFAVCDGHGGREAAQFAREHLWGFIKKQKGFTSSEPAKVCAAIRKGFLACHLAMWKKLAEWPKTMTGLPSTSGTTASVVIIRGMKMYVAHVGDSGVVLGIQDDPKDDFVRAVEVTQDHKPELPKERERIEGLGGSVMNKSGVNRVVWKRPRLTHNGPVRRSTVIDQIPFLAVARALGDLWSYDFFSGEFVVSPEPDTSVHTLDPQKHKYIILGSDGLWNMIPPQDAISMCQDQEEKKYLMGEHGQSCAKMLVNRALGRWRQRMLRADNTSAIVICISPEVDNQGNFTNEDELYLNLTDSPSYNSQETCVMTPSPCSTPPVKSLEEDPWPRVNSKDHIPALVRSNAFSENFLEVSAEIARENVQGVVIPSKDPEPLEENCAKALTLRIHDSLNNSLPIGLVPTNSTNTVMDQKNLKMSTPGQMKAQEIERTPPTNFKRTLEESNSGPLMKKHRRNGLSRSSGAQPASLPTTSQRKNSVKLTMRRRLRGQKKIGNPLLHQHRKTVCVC
The assay is described as follows: Inhibition of C-terminal truncated PPM1D in human HCT116 cells assessed as increase in Ser15 phosphorylated p53 level at 2 uM after 24 to 48 hrs by western blotting. Particulars: HCT-116. In kind it is cell-based. In general terms: A western blot detects proteins with antibodies after separation by electrophoresis.

The target in assay [6] is T1, Protein phosphatase 1D (Homo sapiens). The assay is described as follows: Inhibition of C-terminal truncated PPM1D in human HCT116 cells assessed as increase in p21 level at 2 uM after 24 to 48 hrs by western blotting. It counts as cell-based. Particulars: HCT-116.
Assay [7] is described as follows: Cytotoxicity against human HCT116 cells assessed as cell viability at 40 uM after 48 hrs by MTS assay. Particulars: HCT-116, 48 h, read-out: Activity. It counts as functional.
The nature of assay [8]: Cytotoxicity against human HCT116 cells assessed as cell viability at 40 uM after 48 hrs by MTS assay in presence of doxorubicin. In kind it is functional. Particulars: HCT-116, 48 h, read-out: Activity.
The target in assay [9] is T1, Protein phosphatase 1D (Homo sapiens). Description: Inhibition of C-terminal truncated PPM1D in human HCT116 cells assessed as increase in Ser15 phosphorylated p53 level at 40 uM after 24 to 48 hrs by western blotting in presence of doxorubicin. It counts as cell-based. Particulars: HCT-116.
Assay [10] has the same target. The assay is described as follows: Inhibition of C-terminal truncated PPM1D in human HCT116 cells assessed as increase in p21 level at 40 uM after 24 to 48 hrs by western blotting in presence of doxorubicin. It counts as cell-based. Particulars: HCT-116.
Assay [11] has as its system HCT-116. The assay is described as follows: Increase in C-terminal truncated PPM1D level in human HCT116 cells at 40 uM after 24 to 48 hrs by western blotting in presence of doxorubicin. It counts as functional, cell-based.

Turning to `COc1cccc2c1C(=O)c1c(O)c3c(c(O)c1C2=O)C[C@@](O)(C(=O)CO)C[C@@H]3O[C@H]1C[C@H](N)[C@H](O)[C@H](C)O1` [DOXORUBICIN], the inhibition result with HCT-116 [1] and with A549 [2] was “Dose-dependent effect” throughout. For the same compound, the viability at 2 µM worked out at 40.7% in assay [3] and 5% in the assay on A549 [4]. In addition, the inhibition entry in [5] and in assay [6] was “Active” throughout.

`CC[Si](CC)(CC)O[C@@H]1C[C@H](C)C[C@@H]2[C@@H]1C[C@H](O[Si](C)(C)C(C)(C)C)[C@@H]1[C@](C)(CO)C[C@H](O)C[C@@]21C`: the viability at 40 µM in assay [7] is 94.2%; in assay [8] it was 26.3%. Further, the inhibition result in assay [9] and in assay [10] was “Active” each time. Besides, in the assay with HCT-116 [11], the outcome was Active.
